Consider seven compounds from patent US20070003608A1, “Compounds, compositions and methods for the treatment of viral infections and other medical disorders” (priority 2005, published 2007).

Read-outs that look alike come from different tables or passages of the source.

Data set [1] concerns Human Cytomegalovirus (HCMV). Nature of the data set: HCMV antiviral assay, HCMV DNA quantified by DNA hybridization in MRC-5 cells. Format: cell-based.
Data set [2] has as its system human lung fibroblast cells (MRC-5). Particulars: Table 7; cited from earlier work.
In another data set the test system is HSV-1. Particulars: Human HSV replication in MRC-5 human lung fibroblasts, DNA reduction, about 24 h; average of two experiments (HDP-CDV single determination in duplicate); cited from earlier work.
In data set [3] the test system is human lung fibroblast cells (MRC-5). Description: Cytotoxicity in vitro in MRC-5 human lung fibroblast cells, visual estimate of 50% reduction in cell number. The settings on record: MRC-5 cells, 5 days; Table 2.
Data set [4] concerns HIV-1. Particulars: cited from earlier work.
The next data set concerns HT4-6C Cells. The settings on record: Table 6; cited from earlier work.
Data set [5] is described as follows: Cytotoxicity in vitro in MRC-5 human lung fibroblast cells, visual estimate of 50% reduction in cell number. The settings on record: human, MRC-5 human lung fibroblast cells.
Data set [6] relates to HIV-1. Nature of the data set: HIV-1 plaque reduction assay in HT4-6C cells. In kind it is cell-based. The settings on record: HIV-1 plaque reduction EC50 compared with adefovir. On the technique in general: In a plaque reduction assay, fewer plaques than in the control indicate reduced infectivity or spread.
For the next data set, the system named is Vaccinia. The settings on record: Vero cells, 1000 pfu/well, neutral red; average of 3 determinations; cited from earlier work.
Another data set has as its system Cowpox. The settings on record: cited from earlier work.
For data set [7], the system named is Variola Major, Bangladesh. Particulars: cited from earlier work.
Another data set has as its system Variola Major, Yamada. Particulars: cited from earlier work.
The subject of another data set is Variola Minor Garcia. Particulars: cited from earlier work.
Another data set deals with Vero cells. The settings on record: 50% cytotoxic concentration in Vero cells; cited from earlier work.
The nature of data set [8]: Quantitative whole body autoradiograph after oral [2-14C] HDP-cidofovir. Particulars: mouse, 4 hours after a 5 mg/kg oral dose of [2-14C] HDP-cidofovir.
Setting [9] is: Human CMV replication in MRC-5 human lung fibroblasts, DNA reduction, average of 3 to 6 determinations (ADV single replication in duplicate), read-out: EC50.

For the compound `CCCCCCCCCCCCCCCCCCOCCOP(=O)(O)COC(CO)Cn1ccc(N)nc1=O` (stereo not drawn) [1-O-octadecylpropanediol-2-CDV, 1-O-octadecylethanediol-2-cidofovir], in data set [1] (setting [9]), the EC50 (in general, the midpoint of the concentration-response curve) is 40 nM.
Still for that read-out and setting: then `CCCCCCCCCCCCCCCCCCOCCOP1(=O)COC(Cn2ccc(N)nc2=O)CO1` (stereo not drawn) [1-O-octadecylpropanediol-2-cCDV, 1-O-octadecylethanediol-2-cyclic cidofovir], with 55000 nM.
In the case of `CCCCCCCCCCCCCCCCCCOCCCOP(=O)(O)COC(CO)Cn1ccc(N)nc1=O` (stereo not drawn) [1-O-octadecylpropanediol-3-CDV, 1-O-octadecylpropanediol-3-cidofovir], the concentration for a half-maximal effect (EC50) in data set [1] (setting [9]) was 0.03 nM; with HSV-1 it was 0.003 µM. Further, the CC50 in data set [2] and in [3] was 32 µM each time.
Consider `Nc1ncnc2c1ncn2CCOCP(=O)(O)O` [Adefovir, adefovir, reference compound], for which the 50% effective concentration (EC50) in [1] (Human betaherpesvirus 5, MRC5) was 210 nM; in [1] (Human betaherpesvirus 5, MRC5, 120 h, MRC-5 cells, 5 days, DNA hybridization, preliminary experiments, second TABLE 1, read-out: HCMV EC50), 55000 nM; in the data set with HIV-1 [4] (HIV replication in HT4-6C cells, plaque reduction, average of 4 experiments, Table 6, read-out: EC50), 8.2 µM; in the data set with HIV-1 [4] (HIV-1 LAI infected HT4-6C cells, 3 days, preliminary experiments, Table 5, read-out: EC50, μM, in HIV-1 plaque reduction assay) it was 16 µM. In addition, the cytotoxic concentration (CC50) (usually the concentration that lowers cell viability or growth by half) with HT4-6C Cells was greater than 1000 µM. In data set [5], the CC50 at 5 days was greater than 1000 µM.
As for `CCCCCCCCCCCCCCCCOCCCOP(=O)(O)COCCn1cnc2c(N)ncnc21` [HDP-ADV, 1-O-hexadecylpropanediol-3-adefovir], in the data set on HIV-1 [6], the “logs more active than adefovir itself” value is “more than 5 logs”.
Regarding `CCCCCCCCCCCCCCCCOCCCOP(=O)(O)COC(CO)Cn1ccc(N)nc1=O` (stereo not drawn) [HDP-CDV, hexadecyloxypropyl-cidofovir], the EC50 in data set [1] (Human betaherpesvirus 5, MRC5, Human CMV replication in MRC-5 human lung fibroblasts, DNA reduction, average of 3 to 6 determinations (ADV single replication in duplicate), read-out: EC50) is 0.002 nM; with Vaccinia it was less than 0.03 µM; in the data set on Cowpox it was less than 0.03 µM; in [7], 0.0015 µM; with Variola Major, Yamada, 0.0015 µM; with Variola Minor Garcia it was 0.0006 µM. Besides, the half-maximal cytotoxic concentration (CC50) in the data set with Vero cells was greater than 0.1 µM. For the same compound, the “tissue distribution of drug” value in [8] was “distributed primarily in the GI tract as well as organs including the lung, heart, liver, and kidney”. The CC50 at 5 days in data set [5] is 10 µM.
For `CCCCCCCCCCCCCCCCOP1(=O)CO[C@@H](Cn2ccc(N)nc2=O)CO1` (stereo partly drawn) [Hexadecyl-cCDV, hexadecyl cyclic cidofovir], in data set [1] (setting [9]), the concentration giving a half-maximal response (EC50) was 100 nM. Also, in data set [3], the cytotoxic concentration (CC50) was 6.5 µM.
